The source of these data is patent publication US12486267B2, “Imidazo[1,2-A]pyridine and [1,2,4]triazolo[1,5-A]pyridine derivatives as TLR9 inhibitors for the treatment of fibrosis” (BRISTOL-MYERS SQUIBB COMPANY, priority 2020, dated 2025).

A value given as a limit tells only on which side of the number the result lay.

Holding throughout (format): cell-based
In one assay the target is T1, human TLR9 (Homo sapiens, UniProt Q9NR96).
T1 sequence (Q9NR96 26-1032): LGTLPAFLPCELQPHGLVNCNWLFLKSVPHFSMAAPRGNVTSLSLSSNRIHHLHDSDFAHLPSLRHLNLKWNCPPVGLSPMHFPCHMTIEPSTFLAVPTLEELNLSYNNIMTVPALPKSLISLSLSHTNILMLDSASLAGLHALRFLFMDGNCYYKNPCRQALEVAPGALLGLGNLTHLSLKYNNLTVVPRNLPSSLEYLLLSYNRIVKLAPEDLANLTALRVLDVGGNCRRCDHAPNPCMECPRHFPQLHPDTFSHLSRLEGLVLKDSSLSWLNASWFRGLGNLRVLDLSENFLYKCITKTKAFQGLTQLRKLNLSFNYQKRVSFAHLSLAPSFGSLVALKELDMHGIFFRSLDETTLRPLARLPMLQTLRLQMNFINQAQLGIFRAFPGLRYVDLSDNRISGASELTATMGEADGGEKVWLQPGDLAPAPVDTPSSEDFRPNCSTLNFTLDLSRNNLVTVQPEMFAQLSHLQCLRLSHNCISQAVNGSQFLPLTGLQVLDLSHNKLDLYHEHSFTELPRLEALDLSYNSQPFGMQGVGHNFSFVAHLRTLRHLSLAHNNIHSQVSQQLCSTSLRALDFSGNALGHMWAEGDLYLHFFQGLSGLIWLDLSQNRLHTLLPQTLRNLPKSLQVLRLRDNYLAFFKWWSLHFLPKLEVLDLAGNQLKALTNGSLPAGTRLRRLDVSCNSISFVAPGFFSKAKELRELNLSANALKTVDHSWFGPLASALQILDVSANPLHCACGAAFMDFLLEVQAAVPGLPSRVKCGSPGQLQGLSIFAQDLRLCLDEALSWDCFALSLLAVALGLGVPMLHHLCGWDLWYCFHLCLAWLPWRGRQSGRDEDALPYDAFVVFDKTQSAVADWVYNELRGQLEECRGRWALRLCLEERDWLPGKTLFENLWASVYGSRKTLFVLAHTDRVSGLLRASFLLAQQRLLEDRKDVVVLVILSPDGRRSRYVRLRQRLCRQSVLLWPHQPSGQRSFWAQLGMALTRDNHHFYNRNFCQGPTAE
Description: TLR9 inhibition reporter assay (HEK-Blue cells, SEAP reporter). As to conditions: HEK-Blue cells overexpressing human TLR9; stimulated with ODN2006 5 nM; 22 hour incubation; SEAP readout. In outline:
(§1)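 HEK-Blue cells with NF-κB/AP-1-driven SEAP pre-treated 30 min with compound (0.05 nM–50 μM), then stimulated with gardiquimod 7.5 μM (TLR7), R848 15.9 μM (TLR8) or ODN2006 5 nM (TLR9). SEAP detected after 22 h at 37 °C; percent inhibition relative to agonist-plus-DMSO and known-inhibitor wells.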
A general note: In a reporter assay the amount or activity of a reporter protein is the signal.

The target of another assay is T2, human TLR7 (Homo sapiens, UniProt Q9NYK1).
T2 sequence (Q9NYK1 27-1049): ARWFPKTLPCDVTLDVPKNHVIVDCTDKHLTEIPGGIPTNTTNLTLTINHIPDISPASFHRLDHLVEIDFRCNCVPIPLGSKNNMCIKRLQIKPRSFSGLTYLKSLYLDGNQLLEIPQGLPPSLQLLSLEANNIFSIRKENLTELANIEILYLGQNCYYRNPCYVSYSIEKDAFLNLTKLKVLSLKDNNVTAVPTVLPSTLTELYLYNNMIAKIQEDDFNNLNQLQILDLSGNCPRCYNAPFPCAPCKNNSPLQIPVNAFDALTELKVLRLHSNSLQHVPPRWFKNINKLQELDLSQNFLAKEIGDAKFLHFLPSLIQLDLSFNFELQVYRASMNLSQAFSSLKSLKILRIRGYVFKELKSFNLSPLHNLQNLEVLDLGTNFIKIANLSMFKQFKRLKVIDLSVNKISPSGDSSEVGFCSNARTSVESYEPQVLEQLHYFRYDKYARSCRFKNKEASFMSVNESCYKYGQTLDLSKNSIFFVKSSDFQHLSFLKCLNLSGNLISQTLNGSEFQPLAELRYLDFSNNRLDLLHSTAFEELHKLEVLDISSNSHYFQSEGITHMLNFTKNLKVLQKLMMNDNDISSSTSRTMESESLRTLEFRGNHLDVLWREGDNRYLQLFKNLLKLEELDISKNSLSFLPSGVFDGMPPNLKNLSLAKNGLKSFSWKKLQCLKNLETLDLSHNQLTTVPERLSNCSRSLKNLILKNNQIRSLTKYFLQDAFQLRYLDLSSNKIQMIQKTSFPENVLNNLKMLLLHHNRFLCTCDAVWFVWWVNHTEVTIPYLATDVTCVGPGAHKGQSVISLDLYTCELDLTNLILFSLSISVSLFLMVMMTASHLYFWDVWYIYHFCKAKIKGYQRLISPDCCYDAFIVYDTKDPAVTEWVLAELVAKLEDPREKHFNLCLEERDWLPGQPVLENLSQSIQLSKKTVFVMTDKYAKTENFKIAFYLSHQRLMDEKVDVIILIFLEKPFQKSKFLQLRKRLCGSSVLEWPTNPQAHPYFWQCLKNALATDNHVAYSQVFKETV
Description: TLR7 inhibition reporter assay (HEK-Blue cells, SEAP reporter). As to conditions: HEK-Blue cells overexpressing human TLR7; stimulated with gardiquimod 7.5 μM; 22 hour incubation; SEAP readout. The method, boiled down: as §1

Another assay addresses T3, human TLR8 (Homo sapiens, UniProt Q9NR97).
T3 sequence (Q9NR97 27-1041): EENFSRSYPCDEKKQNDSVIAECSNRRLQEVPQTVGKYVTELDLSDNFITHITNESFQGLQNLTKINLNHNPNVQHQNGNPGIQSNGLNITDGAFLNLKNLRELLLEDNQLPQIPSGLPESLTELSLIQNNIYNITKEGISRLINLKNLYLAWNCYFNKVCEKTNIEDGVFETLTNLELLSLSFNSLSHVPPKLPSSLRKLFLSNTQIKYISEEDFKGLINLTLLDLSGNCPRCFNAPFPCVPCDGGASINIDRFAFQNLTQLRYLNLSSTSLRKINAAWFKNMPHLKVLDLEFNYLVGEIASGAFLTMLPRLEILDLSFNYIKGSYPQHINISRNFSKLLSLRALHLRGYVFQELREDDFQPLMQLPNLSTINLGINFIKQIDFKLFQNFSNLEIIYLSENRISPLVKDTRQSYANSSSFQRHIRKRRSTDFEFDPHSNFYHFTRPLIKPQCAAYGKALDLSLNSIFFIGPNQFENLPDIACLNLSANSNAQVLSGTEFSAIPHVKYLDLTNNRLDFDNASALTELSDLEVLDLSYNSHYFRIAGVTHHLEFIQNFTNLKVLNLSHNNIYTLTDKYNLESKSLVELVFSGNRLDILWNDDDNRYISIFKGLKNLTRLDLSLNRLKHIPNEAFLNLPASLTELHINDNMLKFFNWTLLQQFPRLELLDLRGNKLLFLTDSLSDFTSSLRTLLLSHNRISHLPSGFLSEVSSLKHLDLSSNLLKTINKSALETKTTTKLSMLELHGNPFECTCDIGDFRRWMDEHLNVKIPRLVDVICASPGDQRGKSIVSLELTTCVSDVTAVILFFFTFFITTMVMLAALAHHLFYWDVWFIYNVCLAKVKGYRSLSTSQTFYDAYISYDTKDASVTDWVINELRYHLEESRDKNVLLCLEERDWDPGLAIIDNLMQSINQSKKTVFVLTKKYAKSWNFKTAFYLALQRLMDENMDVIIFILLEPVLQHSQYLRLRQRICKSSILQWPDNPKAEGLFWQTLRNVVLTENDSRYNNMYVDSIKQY
Description: TLR8 inhibition reporter assay (HEK-Blue cells, SEAP reporter). As to conditions: HEK-Blue cells overexpressing human TLR8; stimulated with R848 15.9 μM; 22 hour incubation; SEAP readout. The method, boiled down:
as §1

Take `Cc1cc(C2CCN(C3CCN(CC(C)C)CC3)CC2)cn2nc(-c3ccc(S(C)(=O)=O)cc3)nc12` [Example 163, 6-(1′-isobutyl-[1,4′-bipiperidin]-4-yl)-8-methyl-2-(4-(methylsulfonyl)phenyl)-[1,2,4]triazolo[1,5-a]pyridine]: the IC50 (in general, the concentration needed to halve the response being measured) was 0.034 µM at human TLR9, > 50 µM against human TLR7 and > 50 µM on human TLR8.
